Measured values reported in US8497385B2, “Bryostatin analogues, synthetic methods and uses” (The Board of Trustees of the Leland Stanford Junior …, priority 2007, dated 2013).
Read-outs that look alike come from different tables or passages of the source.

How the values were obtained:
[1] = molecular target: rat brain PKC isozyme mixture; test: Protein Kinase C (Isozyme Mix) Assay; assay type: binding; details: for Ki: rat brain PKC isozyme mixture, read-out: Binding Affinity
[2] = tested on: P388 cell line; test: P388 Murine Lymphocytic Leukemia Cell Assay; assay type: cell-based; details: 5 days incubation, MTT
Protocol: Cells from a P388 cell line (CellGate, Inc., Sunnyvale, Calif.) are grown in RPMI 1640 cell medium containing fetal calf serum (10%), L-glutamine, penicillin, streptomycin and are split twice weekly. All compounds are first diluted with DMSO. Later serial dilutions are done with a phosphate buffer solution (HYQ DPBS modified phosphate buffered saline). All dilutions are done in glass vials and the final DMSO concentration is always below 0.5% by volume. Final two-fold dilutions are done in a 96 well plate using cell media so that each well contains 50 μL. All compounds are assayed in quadruplicate over 12 concentrations. Cell concentration is measured using a hemacytometer and the final cell concentration is adjusted to 1×10^4 cells/mL with cell medium. The resulting solution of cells (50 μL) is then added to each well and the plates are incubated for 5 days in a 37° C., 5% CO2, humidified incubator (Sanyo CO2 incubator). MTT solution (3-[4,5-dimethylthiazol-2-yl]-2,5-diphenyltetrazolium bromide, 10 μL) is then added to each well and the plates are re-incubated under identical conditions for 2 h. To each well is then added acidified isopropanol (150 μL of i-PrOH solution containing 0.05 N HCl) and mixed thoroughly. The plates are then scanned at 595 nm and the absorbances are read (Wallac Victor 1420 Multilabel Counter). The resulting data is then analyzed to determine an ED50 value using the Prism software package (GraphPad).

[3] = molecular target: PKCδ-C1B (Homo sapiens (Human), UniProt Q05655); test: PKCδ-C1B Assay; assay type: binding
Sequence of PKCδ-C1B (Q05655 whole entry, looked up): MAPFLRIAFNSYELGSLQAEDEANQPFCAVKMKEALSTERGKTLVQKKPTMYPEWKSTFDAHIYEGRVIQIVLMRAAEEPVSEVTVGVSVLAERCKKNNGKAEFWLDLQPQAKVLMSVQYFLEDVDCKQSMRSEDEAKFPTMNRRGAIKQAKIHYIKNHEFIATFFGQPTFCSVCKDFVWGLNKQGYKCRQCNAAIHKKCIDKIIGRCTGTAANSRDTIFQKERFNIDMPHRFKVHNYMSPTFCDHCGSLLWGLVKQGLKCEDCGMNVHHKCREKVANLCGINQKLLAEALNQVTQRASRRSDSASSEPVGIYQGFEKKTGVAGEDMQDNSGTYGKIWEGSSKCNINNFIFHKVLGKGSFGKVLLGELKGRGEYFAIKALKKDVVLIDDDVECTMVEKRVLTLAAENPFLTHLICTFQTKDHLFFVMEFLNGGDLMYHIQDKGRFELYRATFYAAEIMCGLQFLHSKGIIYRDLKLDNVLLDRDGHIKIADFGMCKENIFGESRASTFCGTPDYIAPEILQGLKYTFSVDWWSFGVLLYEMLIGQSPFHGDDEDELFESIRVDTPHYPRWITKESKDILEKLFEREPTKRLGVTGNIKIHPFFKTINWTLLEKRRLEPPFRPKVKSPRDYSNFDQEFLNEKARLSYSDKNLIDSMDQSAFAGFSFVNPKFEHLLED

SMILES	Ki [1]	also measured
CCCCCCCC(=O)O[C@H]1/C(=C/C(=O)OC)C[C@H]2C[C@H](CO)OC(=O)C[C@H](O)CCO[C@H](c3ccc(Br)cc3)C[C@@H]3CCO[C@H](/C=C/C(C)(C)[C@]1(O)O2)O3 [Formula 18C]	1.6 nM	
CCCCCCCC(=O)O[C@H]1/C(=C/C(=O)OC)C[C@H]2C[C@H](CO)OC(=O)C[C@H](O)CCO[C@H](c3ccccc3)C[C@@H]3CCO[C@H](/C=C/C(C)(C)[C@]1(O)O2)O3 [Formula 19B.0]	2.3 nM	
CCCCCCCC(=O)O[C@H]1/C(=C/C(=O)OC)C[C@H]2C[C@H](CO)OC(=O)C[C@H](O)CCO[C@H](c3ccc(-c4ccccc4)cc3)C[C@@H]3CCO[C@H](/C=C/C(C)(C)[C@]1(O)O2)O3 [Formula 19B.1]	3.1 nM	
CCCCCCCC(=O)O[C@H]1/C(=C/C(=O)OC)C[C@H]2C[C@H](CO)OC(=O)C[C@H](O)CCO[C@H](c3ccc(CCCOCCOCC)cc3)C[C@@H]3CCO[C@H](/C=C/C(C)(C)[C@]1(O)O2)O3 [Formula 19B.2]	3.8 nM	
CCCCCC/C=C/c1ccc([C@@H]2C[C@@H]3CCO[C@H](/C=C/C(C)(C)[C@]4(O)O[C@@H](C/C(=C\C(=O)OC)[C@@H]4OC(=O)CCCCCCC)C[C@H](CO)OC(=O)C[C@H](O)CCO2)O3)cc1 [Formula 19B.3]	4.6 nM	
COC(=O)/C=C1\C[C@H]2C[C@H]([C@@H](C)O)OC(=O)C[C@H](O)C[C@@H]3CCC[C@H](C[C@@H]4CCO[C@H](/C=C/C(C)(C)[C@](O)(O2)[C@H]1OC(C)=O)O4)O3 [Formula 702.2]		P388 Assay ED50 [2]: 181 nM; Ki [3]: 232 ± 11 nM
CCCCCCC(=O)OC1C(=CC(=O)OC)CC2CC(C(C)O)OC(=O)CC(O)CC3CCCC(CC4CCOC(C=CC(C)(C)C1(O)O2)O4)O3 (stereo not shown) [Formula 702.3]		P388 Assay ED50 [2]: 38 nM; Ki ([3]; competition with tritiated phorbol 12,13-dibutyrate): 35 nM
CCCC(=O)O[C@@H]1[C@@H](C)[C@@]2(O)[C@@H](C=C(CO)C[C@]3(O)C(=O)C(C)=C[C@@H]23)[C@@H]2C(C)(C)[C@]12OC(=O)CCC [Phorbol dibutyrate, phorbol 12,13-dibutyrate, reference compound]		Kd ([1]; under identical conditions to the PKC isozyme mix assay, read-out: Kd of [H^3]-PDBu): 1.55 nM
